Data taken from PubChem BioAssay (NCI).
Several values for one entry are separate records, joined by “and”; a condition that tells them apart may be missing. Equal entries are not always repeated.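 Cultured in 96-well plates, cells were exposed to test compound for 48 hours across five concentrations. GI50 is the concentration that inhibits growth by half. At the TGI there is no net growth.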

Legend:
Assay in all cases: NCI-60 cell line screen, 48 h
DU-145 prostate = system: DU-145 prostate
SK-OV-3 ovarian = system: SK-OV-3 ovarian
HOP-62 NSCLC = system: HOP-62 NSCLC
K-562 leukemia = system: K-562 leukemia
OVCAR-8 ovarian = system: OVCAR-8 ovarian
HL-60(TB) leukemia = system: HL-60(TB) leukemia
CCRF-CEM leukemia = system: CCRF-CEM leukemia
SNB-19 CNS = system: SNB-19 CNS
MDA-N = system: MDA-N
HOP-92 NSCLC = system: HOP-92 NSCLC

Row | SMILES | GI50 (DU-145 prostate) [µM] | TGI (DU-145 prostate) [µM] | GI50 (SK-OV-3 ovarian) [µM] | TGI (SK-OV-3 ovarian) | GI50 (HOP-62 NSCLC) [µM] | TGI (HOP-62 NSCLC) [µM] | GI50 (K-562 leukemia) [µM] | TGI (K-562 leukemia) [µM] | GI50 (OVCAR-8 ovarian) [µM] | TGI (OVCAR-8 ovarian) [µM] | GI50 (HL-60(TB) leukemia) [µM] | TGI (HL-60(TB) leukemia) [µM] | GI50 (CCRF-CEM leukemia) [µM] | TGI (CCRF-CEM leukemia) [µM] | GI50 (SNB-19 CNS) [µM] | TGI (SNB-19 CNS) [µM] | TGI (MDA-N) [µM] | GI50 (HOP-92 NSCLC) [µM] | TGI (HOP-92 NSCLC)
1 | Oc1[nH]c2ccccc2c1/C=c1/cc2c(c(-c3ccc(C(F)(F)F)cc3)n1)=Nc1ccccc1-2 | 8.93 | 34.8 | 13.8 | 56.6 µM | 12.3 | 27.3 | 2.57 | 14.9 | 4.99 | 28.1 | 3.41 | 9.25 | 3.06 | 16.4 | 6.81 | > 100 | – | – | –
2 | Cc1ccc(S(=O)(=O)N/N=C2\C3CC4CC(C3)C2C4)cc1 (stereo not drawn) | – | – | – | > 100 µM | – | > 100 | – | > 100 | – | > 100 | – | > 100 | – | > 100 | – | > 100 | > 100 | – | –
3 | [N-]=[N+]=C(C(=O)C(=[N+]=[N-])C(=O)c1ccccc1)C(=O)c1ccccc1 | – | > 100 | – | – | – | > 100 | – | > 100 | – | > 100 | – | > 100 | – | – | – | > 100 | > 100 | – | –
4 | OC12CCCCCC1(N1CCOCC1)c1ccccc12 (stereo not drawn) | – | – | – | > 100 µM | – | > 100 | – | > 100 | – | > 100 | – | > 100 | – | > 100 | – | > 100 | – | – | –
5 | CC(C)(C)CC(C)(C)c1ccc(OCCOCC[N+](C)(C)Cc2ccccc2)cc1 | 1.77 | 3.36 | 1.46 | 2.94 µM and 25.7 µM | – | 33.5 | – | 15.7 | – | 12.8 | – | 6.31 | – | 6.36 | – | 11.9 | – | 0.94 | 2.27 µM and 4.76 µM
6 | C/C(=C\Cc1cc(O)ccc1O)CCc1c(C)cc(O)c(C=O)c1C | – | – | – | > 100 µM | – | – | – | > 100 | – | 33.9 | – | > 100 | 4.46 | 30.5 | – | > 100 | – | – | 35.3 µM
7 | CCOC1=C2NC(Cc3ccc(F)cc3)=NC2C(=O)c2ccccc21 (stereo not drawn) | – | – | – | > 100 µM | – | > 100 | – | > 100 | – | 61.9 | – | 22.2 | – | 61.8 | – | – | – | – | 51.6 µM
8 | Cc1cc(S(=O)(=O)O)c(NC(=O)c2oc3cc(O)ccc3c(=O)c2C)cc1Cl | – | – | – | > 100 µM | – | > 100 | – | > 100 | – | > 100 | – | – | – | – | – | > 100 | > 100 | – | –
9 | Cc1cn([C@H]2[C@@H](CO)C[C@H]2O)c(=O)[nH]c1=O | – | > 100 | – | – | – | > 100 | – | > 100 | – | > 100 | – | > 100 | – | > 100 | – | – | > 100 | – | > 100 µM
10 | CC12CC(c3ccccc3O1)C(C(=O)Nc1cccc(F)c1)C(=O)N2 (stereo not drawn) | – | > 100 | – | > 100 µM | – | > 100 | – | > 100 | – | 80.6 | – | > 100 | – | > 100 | – | > 100 | > 100 | – | –
11 | COc1ccc(-c2c3ccccc3c(-c3ccc(OCCCCCBr)cc3)c3ccccc23)cc1 | – | – | – | > 100 µM | – | > 100 | – | > 100 | – | > 100 | – | > 100 | – | > 100 | – | > 100 | – | – | > 100 µM
12 | Cc1cc2occ(-c3ccc(Cl)cc3)c2c(=O)o1 | – | – | – | > 100 µM | – | > 100 | – | > 100 | – | > 100 | – | > 100 | – | > 100 | – | > 100 | – | – | > 100 µM
13 | c1ccc(OCCSCCCCCCCCCCSCCOc2ccccc2)cc1 | – | – | – | > 100 µM | – | > 100 | – | > 100 | – | > 100 | – | > 100 | – | > 100 | – | > 100 | – | – | –
14 | O=CNNC(=O)Nc1ccc(Cl)cc1 | – | > 100 | – | > 100 µM | – | > 100 | – | > 100 | – | > 100 | – | > 100 | – | > 100 | – | > 100 | – | – | 76.8 µM
15 | CC1(C)CCC2(C(=O)OC3OC(CO)C(O)C(O)C3O)CCC3(CO)C(=CCC4C5(C)CC(O)C(O)C(C)(C(=O)OC6OC(CO)C(O)C(O)C6O)C5CCC43C)C2C1 (stereo not drawn) | – | > 100 | – | > 100 µM | – | > 100 | – | > 100 | – | > 100 | – | > 100 | – | – | – | > 100 | > 100 | – | > 100 µM
16 | CNc1ccc(S(=O)Nc2ccccc2)cc1 (stereo not drawn) | – | > 100 | – | – | – | > 100 | – | > 100 | – | > 100 | – | > 100 | – | > 100 | – | > 100 | > 100 | – | –
17 | O=C1/C(=C\c2cccc(Oc3ccccc3)c2)SC(c2ccccc2)N1c1cccc([N+](=O)[O-])c1 (stereo not drawn) | – | > 100 | – | > 100 µM | – | > 100 | – | > 100 | – | > 100 | – | – | – | 81.2 | – | > 100 | > 100 | – | > 100 µM
18 | CCOC(=O)c1nc2ccccc2nc1NCc1ccc(Cl)cc1Cl | – | – | – | > 100 µM | – | > 100 | – | > 100 | – | > 100 | – | – | – | > 100 | – | > 100 | > 100 | – | > 100 µM
19 | CC(=O)Nc1ccc(C(=O)N2N=C(C)/C(=C/c3ccc(O)cc3)C2=O)cc1 | – | – | – | – | – | > 100 | – | > 100 | – | > 100 | – | > 100 | – | > 100 | – | > 100 | – | – | –
20 | C=CCOC(=O)CCCCCCCCCCCCCCCOC(=O)C1=C(CCC[C@@H](C)O[Si](C)(C)C(C)(C)C)NC(=O)N2[C@H](CC3(CC/C=C\[C@H](CC)O[Si](C(C)C)(C(C)C)C(C)C)OCCO3)CC[C@H]12 | – | > 100 | – | > 100 µM | – | > 100 | – | – | – | – | – | – | – | > 100 | – | > 100 | > 100 | – | 90.2 µM
21 | Nc1c(N=Nc2ccc(-c3ccc(N=Nc4c(O)ccc5cc(S(=O)(=O)O)cc(S(=O)(=O)O)c45)cc3)cc2)c(S(=O)(=O)O)cc2cc(S(=O)(=O)O)c(N=Nc3ccccc3)c(O)c12 | – | – | – | > 100 µM | – | > 100 | – | > 100 | – | > 100 | – | > 100 | – | > 100 | – | > 100 | – | – | > 100 µM
22 | CC(C)=CCC[C@@H](C)c1c2[nH]c3ccccc3sc-2c(C)c(=O)c1=O | – | > 75 | – | > 75 µM | – | 24.9 | – | > 75 | – | 13.8 | – | 5.02 | – | > 42.4 | – | > 75 | – | – | > 75 µM
23 | CC(=O)O[C@H]1C(=O)N(c2cc3c4ccccc4ccc3c3ccccc23)[C@@H]1c1ccccc1 | – | 43.9 | – | 35.8 µM | – | 32.9 | – | > 100 | – | 32.1 | – | – | – | > 100 | – | > 100 | > 100 | – | 45.7 µM
